Source: US9133148B2, “Carbamate compounds and of making and using same” (Abide Therapeutics, Inc., priority 2012, dated 2015)

Tests used:
[1] = molecular target: Mouse brain MAGL (Mus musculus (Mouse), UniProt O35678); experiment: Mouse brain proteomes from inhibitor treated mice (oral gavage, ABPP of brain MAGL); assay type: in vivo; settings: for Mouse brain MAGL (% inhibition at 20 mg/kg, p.o.): 4 h following administration
Protocol: Preparation of Mouse Brain Proteomes from Inhibitor Treated Mice.
Inhibitors were administered to wild-type C57Bl/6J by oral gavage in a vehicle of polyethylene glycol.

[2] = molecular target: ABHD6 (Mus musculus (Mouse), UniProt Q8R2Y0); experiment: In vitro competitive activity-based protein profiling (FP-Rh), mouse ABHD6; assay type: biochemical; settings: mouse brain membrane proteome
ABHD6, sequence (Q8R2Y0 whole entry): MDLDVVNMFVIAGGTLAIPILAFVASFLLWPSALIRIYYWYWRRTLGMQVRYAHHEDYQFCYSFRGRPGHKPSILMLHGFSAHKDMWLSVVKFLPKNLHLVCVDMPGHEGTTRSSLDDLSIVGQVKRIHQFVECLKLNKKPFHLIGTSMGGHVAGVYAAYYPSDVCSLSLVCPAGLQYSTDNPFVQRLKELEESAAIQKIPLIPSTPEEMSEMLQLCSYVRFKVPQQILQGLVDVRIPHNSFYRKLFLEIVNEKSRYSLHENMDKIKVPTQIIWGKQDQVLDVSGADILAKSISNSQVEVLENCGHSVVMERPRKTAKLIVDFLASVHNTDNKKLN
Protocol: (§1) In Vitro Competitive Activity-Based Protein Profiling.
(§2) Proteomes (mouse brain membrane fraction or cell lysates) ([…], 1.0 mg/mL total protein concentration) were preincubated with varying concentrations of inhibitors at 37° C. After 30 min, FP-Rh (1.0 μL, 50 μM in DMSO) was added and the mixture was incubated for another 30 min at 37° C. Reactions were quenched with SDS loading buffer (50 μL—4×) and run on SDS-PAGE.

[3] = molecular target: MAGL (Mus musculus (Mouse), UniProt O35678); experiment: In vitro competitive activity-based protein profiling (FP-Rh), mouse MAGL; assay type: biochemical; settings: mouse brain membrane proteome
MAGL, sequence (O35678 whole entry): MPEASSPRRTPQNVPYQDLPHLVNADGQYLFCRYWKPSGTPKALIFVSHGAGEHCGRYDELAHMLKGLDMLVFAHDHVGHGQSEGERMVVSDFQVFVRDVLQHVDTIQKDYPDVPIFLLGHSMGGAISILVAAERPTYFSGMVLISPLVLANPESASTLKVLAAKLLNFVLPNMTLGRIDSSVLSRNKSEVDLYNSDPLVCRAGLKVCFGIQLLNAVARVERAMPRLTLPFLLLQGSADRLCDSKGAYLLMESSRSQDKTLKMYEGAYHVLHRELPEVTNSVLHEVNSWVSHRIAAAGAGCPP
Protocol: as §1, §2

[4] = molecular target: Human MAGL (Homo sapiens (Human), UniProt Q99685); experiment: Competitive ABPP with recombinant human MAGL expressed in HEK293T cells; assay type: biochemical
Human MAGL, sequence (Q99685 whole entry): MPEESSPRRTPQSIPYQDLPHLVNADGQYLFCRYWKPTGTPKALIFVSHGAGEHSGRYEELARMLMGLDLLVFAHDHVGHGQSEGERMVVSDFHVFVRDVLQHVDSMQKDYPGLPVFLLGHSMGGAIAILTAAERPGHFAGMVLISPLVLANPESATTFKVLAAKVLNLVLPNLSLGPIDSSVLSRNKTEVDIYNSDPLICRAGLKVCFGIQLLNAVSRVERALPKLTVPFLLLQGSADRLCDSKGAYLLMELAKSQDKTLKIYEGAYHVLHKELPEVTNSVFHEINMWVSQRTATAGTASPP
Protocol: as §2
Recombinant Expression of Human MAGL in HEK293T Cells.
Cell lysates were diluted with mock proteomes for use in competitive ABPP experiments.

[5] = molecular target: FAAH (Mus musculus (Mouse), UniProt O08914); experiment: In vitro competitive activity-based protein profiling (FP-Rh), mouse FAAH; assay type: biochemical; settings: mouse brain membrane proteome
FAAH, sequence (O08914 whole entry): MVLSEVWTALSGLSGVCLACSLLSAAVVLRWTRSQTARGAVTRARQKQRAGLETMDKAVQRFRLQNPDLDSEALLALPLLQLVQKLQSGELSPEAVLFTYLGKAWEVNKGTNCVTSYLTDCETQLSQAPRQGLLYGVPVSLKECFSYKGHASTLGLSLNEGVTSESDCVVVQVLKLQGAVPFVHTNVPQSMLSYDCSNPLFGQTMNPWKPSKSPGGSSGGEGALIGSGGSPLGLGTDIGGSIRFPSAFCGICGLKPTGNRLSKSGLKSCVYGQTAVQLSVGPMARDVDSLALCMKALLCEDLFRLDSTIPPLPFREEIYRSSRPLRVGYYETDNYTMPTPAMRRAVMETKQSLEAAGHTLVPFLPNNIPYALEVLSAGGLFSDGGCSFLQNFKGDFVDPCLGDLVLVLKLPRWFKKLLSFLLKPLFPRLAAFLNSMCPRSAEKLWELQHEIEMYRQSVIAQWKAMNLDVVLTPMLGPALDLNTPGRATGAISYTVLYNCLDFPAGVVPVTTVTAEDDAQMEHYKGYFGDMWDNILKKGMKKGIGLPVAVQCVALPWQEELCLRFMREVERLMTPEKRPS
Protocol: as §1, §2

Mouse brain MAGL, sequence (O35678 whole entry): as the sequence (O35678 whole entry) above

O=C(OC(C(F)(F)F)C(F)(F)F)N1CCC(C(O)(c2ccc3c(c2)OCO3)c2ccc3c(c2)OCO3)CC1 [Example 1a, 1,1,1,3,3,3-hexafluoropropan-2-yl 4-(bis(benzo[d][1,3]dioxol-5-yl)(hydroxy)methyl)piperidine-1-carboxylate]
Mouse brain MAGL (% inhibition at 20 mg/kg, p.o.) [1]: >95% | IC50 ([2]; competitive ABPP): > 1000 nM | IC50 ([3]; competitive ABPP): < 100 nM | IC50 ([4]; hMAGL in HEK293T cell lysates): < 100 nM | IC50 ([5]; competitive ABPP): > 10000 nM

O=C(OC(C(F)(F)F)C(F)(F)F)N1CCN(C(c2ccc(F)cc2)c2ccc(F)cc2)CC1 [Example 2a, 1,1,1,3,3,3-hexafluoropropan-2-yl 4-(bis(4-fluorophenyl)methyl)-piperazine-1-carboxylate]
Mouse brain MAGL (% inhibition at 20 mg/kg, p.o.) [1]: >95% | IC50 ([2]; competitive ABPP): > 1000 nM | IC50 ([3]; competitive ABPP): < 100 nM | IC50 ([4]; hMAGL in HEK293T cell lysates): < 100 nM | IC50 ([5]; competitive ABPP): > 10000 nM

O=C(OC(C(F)(F)F)C(F)(F)F)N1CCN(Cc2cccc(Oc3ccccc3)c2)CC1 [Example 3a, 1,1,1,3,3,3-hexafluoropropan-2-yl 4-(3-phenoxybenzyl)piperazine-1-carboxylate]
Mouse brain MAGL (% inhibition at 20 mg/kg, p.o.) [1]: >95% | IC50 ([2]; competitive ABPP): < 100 nM | IC50 ([3]; competitive ABPP): < 100 nM | IC50 ([4]; hMAGL in HEK293T cell lysates): < 100 nM | IC50 ([5]; competitive ABPP): > 10000 nM

O=C(OC(C(F)(F)F)C(F)(F)F)N1CCC(C(c2ccc3c(c2)OCO3)c2ccc3c(c2)OCO3)CC1 [Example 1c, 1,1,1,3,3,3-hexafluoropropan-2-yl 4-(bis(benzo[d][1,3]dioxol-5-yl)methyl)piperidine-1-carboxylate]
Mouse brain MAGL (% inhibition at 20 mg/kg, p.o.) [1]: >95% | IC50 ([2]; competitive ABPP): > 1000 nM | IC50 ([3]; competitive ABPP): < 100 nM | IC50 ([4]; hMAGL in HEK293T cell lysates): < 100 nM | IC50 ([5]; competitive ABPP): > 10000 nM

O=C(OC(C(F)(F)F)C(F)(F)F)N1CCN(C(c2ccc3c(c2)OCO3)c2ccc3c(c2)OCO3)CC1 [Example 2d, 1,1,1,3,3,3-hexafluoropropan-2-yl 4-(bis(benzo[d][1,3]dioxol-5-yl)methyl)piperazine-1-carboxylate]
Mouse brain MAGL (% inhibition at 20 mg/kg, p.o.) [1]: >95% | IC50 ([2]; competitive ABPP): 100 to 1000 nM | IC50 ([3]; competitive ABPP): < 100 nM | IC50 ([4]; hMAGL in HEK293T cell lysates): < 100 nM | IC50 ([5]; competitive ABPP): > 10000 nM

CC(C)(C)c1ccc(S(=O)(=O)N2CCN(C(=O)OC(C(F)(F)F)C(F)(F)F)CC2)cc1 [Example 4c, 1,1,1,3,3,3-hexafluoropropan-2-yl 4-((4-(tert-butyl)phenyl)sulfonyl)-piperazine-1-carboxylate]
Mouse brain MAGL (% inhibition at 20 mg/kg, p.o.) [1]: >95% | IC50 ([2]; competitive ABPP): > 1000 nM | IC50 ([3]; competitive ABPP): < 100 nM | IC50 ([4]; hMAGL in HEK293T cell lysates): < 100 nM | IC50 ([5]; competitive ABPP): > 10000 nM

CN(Cc1cccc(-c2cccnc2)c1)C(=O)OC(C(F)(F)F)C(F)(F)F [Example 3g, 1,1,1,3,3,3-hexafluoropropan-2-yl methyl(3-(pyridin-3-yl)benzyl)-carbamate]
Mouse brain MAGL (% inhibition at 20 mg/kg, p.o.) [1]: 93% | IC50 ([2]; competitive ABPP): < 100 nM | IC50 ([3]; competitive ABPP): 100 to 1000 nM | IC50 ([4]; hMAGL in HEK293T cell lysates): < 100 nM | IC50 ([5]; competitive ABPP): > 10000 nM

COc1cc(N2CCOCC2)ccc1CN1CCN(C(=O)OC(C(F)(F)F)C(F)(F)F)CC1 [Example 9s, 1,1,1,3,3,3-hexafluoropropan-2-yl 4-(2-methoxy-4-morpholinobenzyl)piperazine-1-carboxylate]
ED50 ([1]; po): < 4 mg/kg | IC50 ([2]; competitive ABPP (Table 7)): 100 to 1000 nM | IC50 ([3]; competitive ABPP (Table 7)): < 100 nM | IC50 ([4]; hMAGL in HEK293T cell lysates (Table 7)): < 100 nM | IC50 ([5]; competitive ABPP (Table 7)): > 6250 nM

O=C(OC(C(F)(F)F)C(F)(F)F)N1CCN(C(c2ccc(Br)cc2)c2ccc(Br)cc2)CC1 [Example 2c, 1,1,1,3,3,3-hexafluoropropan-2-yl 4-(bis(4-bromophenyl)methyl)-piperazine-1-carboxylate]
Mouse brain MAGL (% inhibition at 20 mg/kg, p.o.) [1]: 94% | IC50 ([2]; competitive ABPP): > 1000 nM | IC50 ([3]; competitive ABPP): 100 to 1000 nM | IC50 ([4]; hMAGL in HEK293T cell lysates): < 100 nM | IC50 ([5]; competitive ABPP): > 10000 nM
